{"source": "patent US20160151369A1", "about": "“SUBSTITUTED 3-PHENYLPROPYLAMINE DERIVATIVES FOR THE TREATMENT OF OPHTHALMIC DISEASES AND DISORDERS” (ACUCELA INC., priority 2013, published 2016)", "key": {"[1]": {"system": "retinal isomerase activity (regeneration of 11-cis-retinal)", "assay": "Comparative in vivo murine isomerase assay, dose response (compound A vs compound D)", "set-up": "species or system BALB/c mice", "experimental": "(§1) All test compounds were stored at room temperature, dessicated.\nOn the day prior to dose administration compound A and compound D were weighed into new empty glass vials. The compounds were dissolved in di-water at the concentration of 0.833 mg/mL compound A and 0.892 mg/mL compound D, serially diluted into various concentrations, and stored overnight at 4 OC.\n56 Male BALB/c mice (Charles River Laboratories) were used for this study. The mice were approximately 8 weeks at the initiation of dosing with an average body weight of 24 grams.\nThe day prior to dose administration 56 BALB/c mice were placed into a dark room and dark adapted for a minimum of 12 hours prior to dose administration. The mice were maintained in the dark for the duration of the study.\nEach animal was removed from its cage and dosed accordingly to the study design in Table 4 (see below). Each animal was administered 0.1 mL of the appropriate compound or vehicle via oral gavage using a 1 mL syringe fitted with a 23 gauge oral gavage needle. Two hours following dose administration, animals were removed from the dark and exposed to 5000 Lux white light for 10 minutes to photobleach their eyes.\nFollowing the completion of the photobleach the animals were returned to the dark for 2 hours to allow for the regeneration of 11-cis-retinal in the eyes. Two hours after photobleaching each animal was euthanized with carbon dioxide followed by cervical dislocation, in the dark under red light. The light control group was euthanized immediately following photobleaching. Immediately following the cervical dislocation both eyes of each animal were removed and transferred into separate tubes, flash frozen in liquid nitrogen and stored in the dark at −80° C. until processing and analysis.\n(§2) All sample processing procedures were performed in the dark under red light.\nExtracted samples were analyzed using an Agilent 1100 HPLC system according to the procedure outlined in Table 6 (see below)\n(§3) HPLC analysis of the eyes measures the peak area units of the 110 cis-Ral-Oxime_syn. Signal.\n(§4) Data analysis % inhibition (drug vs. recovery control). % control (drug vs. light control), and One-way ANOVA (followed by Tukey's Multiple Comparison) were performed using peak area units and performed by Prism software. Data are represented as mean and standard deviation."}, "[2]": {"system": "isomerase (recovery of 11-cis-retinal after bleaching)", "assay": "In vivo murine isomerase assay (Table 3)", "details": "Mus musculus, po, 4 h, mice, Dose 1 mg/kg", "procedure": "The capability of compounds described herein to inhibit isomerase was determined by an in vivo murine isomerase assay. […] The recovery of 11-cis-retinal after bleaching can be used to estimate the activity of isomerase in vivo. Delayed recovery, as represented by lower 11-cis-retinal oxime levels, indicates inhibition of isomerization reaction.\nMice were gavaged with the test compound. […] The mice were allowed to recover 2 hours in the dark. The animals were then sacrificed by carbon dioxide inhalation. Retinoids were extracted from the eye and the regeneration of 11-cis-retinal was assessed at various time intervals.\nAfter the mice were sacrificed, the eyes were immediately removed and placed in liquid nitrogen for storage.\nThe eyes were placed in 500 μL of bis-tris propane buffer (10 mM, pH˜7.3) and 20 μL of 0.8M hydroxile amine (pH˜7.3). The eyes were cut up into small pieces with small iris scissors and then thoroughly homogenized at 30000 rpm with a mechanical homogenizer (Polytron PT 1300 D) in the tube until no visible tissue remained. 500 μL of methanol and 500 μL of heptane were added to each tube. The tubes were attached to a vortexer so that the contents were mixed thoroughly for 15 minutes in room temperature. The organic phase was separated from the aqueous phase by centrifugation for 10 min at 13K rpm, 4° C. 240 μL of the solution from the top layer (organic phase) was removed and transferred to clean 300 μl glass inserts in HPLC vials using glass pipette and the vials were crimped shut tightly.\nThe samples were analyzed on an Agilent 1100 HPLC system with normal phase column: SILICA (Beckman Coutlier, dp 5 μm, 4.6 mM×250 mM). […] Loading volume for each sample was 100 μl; detection wavelength was 360 nm. The area under the curve for 11-cis retinal oxime was calculated by Agilent Chemstation software and was recorded manually. Data processing was performed using Prizm software.\nPositive control mice (no compound administered) were sacrificed fully dark-adapted and the eye retinoids analyzed. Light (bleached) control mice (no compound administered) were sacrificed and retinoids isolated and analyzed immediately after light treatment.\nA time course study was performed to determine the isomerase inhibitory activity of the test compound. […] The animals were then “photo-bleached” (5000 Lux white light for 10 minutes) at 2, 4, 8, 16 and 24 hours after dosing, and returned to darkness to allow recovery of the 11-cis-retinal content of the eyes. Mice were sacrificed 2 hours after bleaching, eyes were enucleated, and retinoid content is analyzed by HPLC.\nRecovery control mice (vehicle-only treated) were light-treated and left to recover for 2 hours in the dark before sacrifice and analysis. Light control mice (vehicle only treated) were sacrificed for analysis immediately after photo-bleaching.\nAn in vivo dose response isomerase inhibition study was performed with test compound. […] Recovery and retinoid analysis were performed as described above. Dark control mice were vehicle-only treated, sacrificed fully dark adapted without light treatment, and analyzed. Recovery control mice and light control mice were included in the study as per the initial phase."}, "[3]": {"system": "regeneration of 11-cis-retinal (isomerase)", "assay": "Single dose time course in the in vivo isomerase assay at 0.3 mg/kg (compound A vs compound D)", "details": "BALB/c mice, single oral dose 0.3 mg/kg; for inhibition at 0.3 mg/kg: Mus musculus, read-out: Percent Inhibition, 0.3 mg/kg, Avg. % Inhibition", "experimental": "as §1\nOn the day prior to dose administration 3-amino-1-(3-((tetrahydro-2H-pyran-4-yl)methoxy)phenyl)propan-1-ol (compound A) and 3-amino-1-(3-((tetrahydro-2H-pyran- 2-yl)methoxy)phenyl)propan-1-ol (compound D) were weighed into new empty glass vials. The compounds were dissolved in di-water at the concentration of 0.068 mg/mL and stored overnight at 4° C.\n52 Male BALB/c mice (Charles River Laboratories) were used for this study. The mice were approximately 8 weeks at the initiation of dosing with an average body weight of 23 grams.\nThe day prior to dose administration 52 BALB/c mice were placed into a dark room and dark adapted for a minimum of 12 hours prior to dose administration. The mice were maintained in the dark for the duration of the study.\nEach animal was removed from its cage and dosed accordingly to the study design in Table 10 (see below). Each animal was administered 0.1 mL of the appropriate test article or vehicle orally using a 1 mL syringe fitted with a 23 gauge oral gavage needle. At 2, 4, 6, 8, 16 or 24 hours following dose administration, animals were removed from the dark and exposed to 5000 Lux white light for 10 minutes to photobleach their eyes. Following the completion of the photobleach the animals were returned to the dark for 2 hours to allow for the regeneration of 11-cis-retinal in the eyes. Two hours after photobleaching each animal was euthanized with carbon dioxide followed by cervical dislocation, in the dark under red light. The light control group was euthanized immediately following photobleaching. Immediately following the cervical dislocation both eyes of each animal were removed and transferred into separate tubes, flash frozen in liquid nitrogen and stored in the dark at −80° C. until processing and analysis.\nas §2\nExtracted samples were analyzed using an Agilent 1100 HPLC system according to the procedure outlined in Table 12 (see below)\nas §3, §4"}}, "note": "Read-outs that look alike come from different tables or passages of the source.", "data": [{"smiles": "NCCC(O)c1cccc(OCC2CCCCO2)c1", "note": "(centres unmarked) [compound D, reference compound]", "values": [{"measurement": "dose at which 11-cis-retinal recovery was inhibited by 50% (called IC50)", "setting": "[1]; BALB/c mice, single oral dose, 2 h, dose response experiment", "result": 0.59, "unit": "mg/kg"}, {"measurement": "inhibition at 0.03 mg/kg", "setting": "[1]; Mus musculus, po, 2 h, BALB/c mice, single oral dose 0.03 mg/kg, bleach 2 h after dose, drug vs. recovery control, read-out: Percent Inhibition at 2 Hours, Avg. % Inhibition", "result": -5.3, "unit": "%"}, {"measurement": "inhibition at 0.1 mg/kg", "setting": "[1]; Mus musculus, po, 2 h, BALB/c mice, single oral dose 0.1 mg/kg, bleach 2 h after dose, drug vs. recovery control, read-out: Percent Inhibition at 2 Hours, Avg. % Inhibition", "result": -23.9, "unit": "%"}, {"measurement": "inhibition at 0.3 mg/kg", "setting": "[1]; Mus musculus, po, 2 h, BALB/c mice, single oral dose 0.3 mg/kg, bleach 2 h after dose, drug vs. recovery control, read-out: Percent Inhibition at 2 Hours, Avg. % Inhibition", "result": -2.1, "unit": "%"}, {"measurement": "inhibition at 0.5 mg/kg", "setting": "[1]; Mus musculus, po, 2 h, BALB/c mice, single oral dose 0.5 mg/kg, bleach 2 h after dose, drug vs. recovery control, read-out: Percent Inhibition at 2 Hours, Avg. % Inhibition", "result": 41.4, "unit": "%"}, {"measurement": "inhibition at 1 mg/kg", "setting": "[1]; Mus musculus, po, 2 h, BALB/c mice, single oral dose 1 mg/kg, bleach 2 h after dose, drug vs. recovery control, read-out: Percent Inhibition at 2 Hours, Avg. % Inhibition", "result": 70.2, "unit": "%"}, {"measurement": "inhibition at 3 mg/kg", "setting": "[1]; Mus musculus, po, 2 h, BALB/c mice, single oral dose 3 mg/kg, bleach 2 h after dose, drug vs. recovery control, read-out: Percent Inhibition at 2 Hours, Avg. % Inhibition", "result": 100, "unit": "%"}, {"measurement": "activity at 0.03 mg/kg", "setting": "[1]; Mus musculus, BALB/c mice, single oral dose 0.03 mg/kg, bleach 2 h after dose, read-out: Percent control at 2 Hours (Avg. % Inhibition)", "result": 105, "unit": "%"}, {"measurement": "activity at 0.1 mg/kg", "setting": "[1]; Mus musculus, BALB/c mice, single oral dose 0.1 mg/kg, bleach 2 h after dose, read-out: Percent control at 2 Hours (Avg. % Inhibition)", "result": 124, "unit": "%"}, {"measurement": "activity at 0.5 mg/kg", "setting": "[1]; Mus musculus, BALB/c mice, single oral dose 0.5 mg/kg, bleach 2 h after dose, read-out: Percent control at 2 Hours (Avg. % Inhibition)", "result": 58.6, "unit": "%"}, {"measurement": "activity at 1 mg/kg", "setting": "[1]; Mus musculus, BALB/c mice, single oral dose 1 mg/kg, bleach 2 h after dose, read-out: Percent control at 2 Hours (Avg. % Inhibition)", "result": 29.8, "unit": "%"}, {"measurement": "activity at 3 mg/kg", "setting": "[1]; Mus musculus, BALB/c mice, single oral dose 3 mg/kg, bleach 2 h after dose, read-out: Percent control at 2 Hours (Avg. % Inhibition)", "result": 0, "unit": "%"}, {"measurement": "dose showing nearly 100% inhibition", "setting": "[1]; dose response experiment, 2 h", "result": 3.0, "unit": "mg/kg"}, {"measurement": "inhibition at 1 mg/kg", "setting": "[2]", "result": 57, "unit": "%"}, {"measurement": "Percent Control, 0.3 mg/kg (average)", "setting": "[3]; Time Point 2 Hours", "result": 86.8, "unit": "%"}, {"measurement": "Percent Control, 0.3 mg/kg (average)", "setting": "[3]; Time Point 4 Hours", "result": 101.8, "unit": "%"}, {"measurement": "Percent Control, 0.3 mg/kg (average)", "setting": "[3]; Time Point 6 Hours", "result": 87.9, "unit": "%"}, {"measurement": "Percent Control, 0.3 mg/kg (average)", "setting": "[3]; Time Point 8 Hours", "result": 94.6, "unit": "%"}, {"measurement": "Percent Control, 0.3 mg/kg (average)", "setting": "[3]; Time Point 16 Hours", "result": 104.1, "unit": "%"}, {"measurement": "Percent Control, 0.3 mg/kg (average)", "setting": "[3]; Time Point 24 Hours", "result": 89.5, "unit": "%"}, {"measurement": "inhibition at 0.3 mg/kg", "setting": "[3]; Time Point 2 Hours", "result": 13.2, "unit": "%"}, {"measurement": "inhibition at 0.3 mg/kg", "setting": "[3]; Time Point 4 Hours", "result": -1.8, "unit": "%"}, {"measurement": "inhibition at 0.3 mg/kg", "setting": "[3]; Time Point 6 Hours", "result": 12.1, "unit": "%"}, {"measurement": "inhibition at 0.3 mg/kg", "setting": "[3]; Time Point 8 Hours", "result": 5.4, "unit": "%"}, {"measurement": "inhibition at 0.3 mg/kg", "setting": "[3]; Time Point 16 Hours", "result": -4.1, "unit": "%"}, {"measurement": "inhibition at 0.3 mg/kg", "setting": "[3]; Time Point 24 Hours", "result": 10.5, "unit": "%"}]}]}
